{"source": "patent US8933012B2", "about": "“Glycopeptide antibiotic derivative” (priority 2006, dated 2015)", "key": {"[1]": {"test": "Single-dose intravenous toxicity screening test in mouse", "assay_type": "in vivo", "conditions": "single intravenous dose 30 mg/kg, compared with corresponding compound having -COOH at the C-terminal", "method": "The compounds of the invention were tested for water solubility and toxicity."}, "[2]": {"system": "methicillin-resistant Staphylococcus aureus S. aureus SR3637 (H-MRSA)", "test": "In vitro antimicrobial activity, MIC by microdilution method", "assay_type": "cell-based", "method": "(§1) In Vitro Assay of Antimicrobial Activity\n(§2) For several compounds of the invention, minimal inhibitory concentration (MIC) was determined by the microdilution method using cation adjusted Mueller-Hinton broth well known in the art."}, "[3]": {"system": "vancomycin-resistant enterococcus E. faecalis SR7914 (VanA)", "test": "In vitro antimicrobial activity, MIC by microdilution method", "assay_type": "cell-based", "method": "as §1, §2"}}, "data": [{"smiles": "CCNNC(=O)C1NC(=O)C2NC(=O)[C@H](NC(=O)[C@@H]3NC(=O)[C@H](CC(N)=O)NC(=O)C(NC(=O)[C@@H](CC(C)C)NC)[C@H](O)c4ccc(c(Cl)c4)Oc4cc3cc(c4OC3O[C@H](CO)[C@@H](O)[C@H](O)[C@H]3OC3C[C@](C)(NCc4cccc(NC(=O)c5ccc(OC(F)(F)F)cc5)c4)[C@H](O)[C@H](C)O3)Oc3ccc(cc3Cl)[C@H]2O)c2ccc(O)c(c2)-c2c(O)cc(O)cc21", "note": "(stereo partly drawn) [Example 2]", "values": [{"measurement": "histological findings in kidney etc.", "setting": "[1]", "result": "good histological findings"}]}, {"smiles": "CN[C@H](CC(C)C)C(=O)NC1C(=O)N[C@@H](CC(N)=O)C(=O)N[C@H]2C(=O)N[C@H]3C(=O)NC(C(=O)NC(C(=O)NO)c4cc(O)cc(O)c4-c4cc3ccc4O)[C@H](O)c3ccc(c(Cl)c3)Oc3cc2cc(c3OC2O[C@H](CO)[C@@H](O)[C@H](O)[C@H]2OC2C[C@](C)(NCCC3CCN(C(=O)Nc4ccc(OC(F)(F)F)cc4)CC3)[C@H](O)[C@H](C)O2)Oc2ccc(cc2Cl)[C@H]1O", "note": "(stereo partly drawn) [Example 4]", "values": [{"measurement": "MIC", "setting": "[2]", "result": 0.5, "unit": "µg/mL"}, {"measurement": "MIC", "setting": "[3]", "result": 4, "unit": "µg/mL"}]}]}
